Test systems include SK-OV-3; PC-3; CCRF-CEM; U-251; NCI-H226; CAKI-1; TK-10; SK-MEL-2; SNB-75; MOLT-4; Malme-3M; HCT-116; HCT-15; SK-MEL-28; K562; UACC-62; A498; NCI-H460; UACC-257; SR.
Test in all cases: growth of human tumour cells (NCI), 48 h

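Step 1: Grow cells in 96-well plates. Step 2: Expose to compound for 48 hours at 5 concentrations. Step 3: Interpolate endpoints linearly; if unreached, use highest concentration. Here, GI50 denotes the concentration required for 50% inhibition of growth.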 Calls of active or inactive are those of the source. Rule as the data show it: active = GI50 up to about 1.1 µM and inactive = higher.

Take `COc1ccc(/C=C2\N=C(SC)NC2=O)cc1`: the GI50 in the test with SK-OV-3 was > 100 µM (inactive); in the test on PC-3, 67.1 µM (inactive); in the test on CCRF-CEM, 81.8 µM (inactive); with U-251, 90.6 µM (inactive); with NCI-H226, > 100 µM (inactive); in the test with CAKI-1, 56 µM (inactive). Also, the GI50 is 86.1 µM (inactive) in the test on TK-10; > 100 µM (inactive) with SK-MEL-2; 27.2 µM (inactive) in the test on SNB-75; 46.5 µM (inactive) with MOLT-4; > 100 µM (inactive) with Malme-3M; > 100 µM (inactive) in the test with HCT-116. Further, the GI50 was 89.7 µM in the test with HCT-15, > 100 µM (inactive) with SK-MEL-28, > 10 µM (inactive) in the test on K562 and 70.3 µM (inactive) with UACC-62.
Take `Cc1cc([N+](=O)[O-])c(C)c(Br)c1C`: the GI50 in the test on SK-OV-3, in the test on PC-3, with A498, in the test with NCI-H460, in the test on U-251 and in the test on NCI-H226 was > 100 µM (inactive) each time. For the same compound, the GI50 in the test on CAKI-1 was > 100 µM (inactive); in the test with TK-10, > 100 µM (inactive); in the test on SK-MEL-2 it was > 100 µM (inactive); in the test on SNB-75 it was 25.2 µM (inactive); in the test on Malme-3M, > 100 µM (inactive); in the test on HCT-116, > 100 µM (inactive). The GI50 in the test with HCT-15 is above 100 µM; in the test on SK-MEL-28, > 100 µM (inactive); in the test on K562, > 100 µM (inactive); with UACC-62, > 100 µM (inactive); in the test on UACC-257, > 100 µM (inactive).
Consider `C[C@H](O)CCC(=O)c1ccoc1`, for which the GI50 in the test on SK-OV-3, in the test on SR, in the test on A498, with CCRF-CEM, in the test on NCI-H460 and in the test on U-251 was > 100 µM (inactive) in each case. Also, the GI50 is > 100 µM (inactive) in the test on NCI-H226; > 100 µM (inactive) in the test on CAKI-1; > 100 µM (inactive) in the test with TK-10; > 100 µM (inactive) in the test with SK-MEL-2; > 34.5 µM (inactive) in the test with SNB-75; > 100 µM (inactive) in the test with MOLT-4. Besides, the GI50 in the test on Malme-3M was > 100 µM (inactive); with HCT-116, > 100 µM (inactive); with HCT-15, above 100 µM; in the test on SK-MEL-28 it was > 100 µM (inactive); in the test with K562, > 100 µM (inactive); in the test on UACC-62, > 100 µM (inactive). Moreover, the GI50 with UACC-257 was > 100 µM (inactive).
With `COc1cc2oc(-c3ccc4c(c3)OCO4)c(OC)c(=O)c2c(OC)c1O`, the GI50 with SK-OV-3 was 39.4 µM (inactive); with PC-3, 68.5 µM (inactive); with A498, 45.4 µM (inactive); with CCRF-CEM it was 34.7 µM (inactive); with NCI-H460, 64.6 µM (inactive); in the test on U-251 it was 38.4 µM (inactive). Also, the GI50 in the test on NCI-H226 is > 100 µM (inactive); in the test with CAKI-1, > 100 µM (inactive); in the test with TK-10, 56.4 µM (inactive); in the test with SNB-75, 33.2 µM (inactive); in the test on MOLT-4, 45.7 µM (inactive); in the test with Malme-3M, > 100 µM (inactive). Besides, the GI50 in the test with HCT-116 is 61 µM (inactive); in the test on HCT-15, 78.7 µM; with SK-MEL-28 it was > 100 µM (inactive); in the test with K562, 34.4 µM (inactive); with UACC-62, 54.3 µM (inactive); in the test with UACC-257 it was > 100 µM (inactive).
Take `O=C(Cn1c2c(c3ccccc31)CCCC2)N1CCOCC1`: the GI50 in the test on SK-OV-3, in the test with PC-3, in the test on A498, with CCRF-CEM, in the test with NCI-H460 and in the test with CAKI-1 was > 100 µM (inactive) each time. The GI50 in the test with TK-10 was > 100 µM (inactive); with SK-MEL-2 it was > 100 µM (inactive); in the test with MOLT-4, > 100 µM (inactive); in the test on Malme-3M it was > 100 µM (inactive); with HCT-116, > 100 µM (inactive); in the test with HCT-15, above 100 µM. The GI50 in the test with K562, in the test on UACC-62 and in the test on UACC-257 was > 100 µM (inactive) throughout.
Regarding `NC(=S)N1N=C2c3ccccc3CC[C@@H]2[C@@H]1c1ccccc1`, the GI50 is 9.73 µM (inactive) in the test with SK-OV-3; 1.47 µM (inactive) in the test with SR; 13.2 µM (inactive) with A498; 3.24 µM (inactive) with CCRF-CEM; 5.42 µM (inactive) in the test with NCI-H460; 3.98 µM (inactive) in the test with U-251. The GI50 is 4.65 µM (inactive) in the test with NCI-H226; 5.01 µM (inactive) in the test on CAKI-1; 16.8 µM (inactive) in the test with TK-10; 5.92 µM (inactive) with SK-MEL-2; 3.62 µM (inactive) in the test on SNB-75; 4.05 µM (inactive) in the test on MOLT-4. For the same compound, the GI50 with Malme-3M is 5.4 µM (inactive); in the test on HCT-116 it was 5.48 µM (inactive); with HCT-15 it was 3.33 µM; in the test on SK-MEL-28 it was 9.84 µM (inactive); in the test on K562 it was 2 µM (inactive); in the test with UACC-62 it was 4.74 µM (inactive). Moreover, the GI50 in the test with UACC-257 is 9.29 µM (inactive).
As to `NS(=O)(=O)c1ccccc1C(=O)N/N=C(\c1nc2ccc([N+](=O)[O-])cc2[nH]c1=O)C(O)c1ccc([N+](=O)[O-])cc1` (stereo unspecified), the GI50 in the test on SK-OV-3 is > 100 µM (inactive); in the test with SR, > 100 µM (inactive); in the test on A498 it was > 100 µM (inactive); with CCRF-CEM it was 71.1 µM (inactive); in the test with NCI-H460, > 100 µM (inactive); in the test on U-251, > 100 µM (inactive). Moreover, the GI50 in the test on NCI-H226, in the test on CAKI-1, in the test with TK-10, with SK-MEL-2, in the test with SNB-75 and in the test with MOLT-4 was > 100 µM (inactive) in each case. In addition, the GI50 is > 100 µM (inactive) in the test on Malme-3M; 84.1 µM (inactive) in the test on HCT-116; 24.2 µM in the test with HCT-15; > 100 µM (inactive) with SK-MEL-28; 56.5 µM (inactive) in the test on K562; 52.2 µM (inactive) with UACC-62. Besides, the GI50 with UACC-257 was > 100 µM (inactive).
Regarding `CC(=O)O[C@H]1CCC2[C@@H]3CCC4Cc5nc6c(nc5C[C@]4(C)C3CC[C@@]21C)CC1CC[C@@H]2C(CC[C@@]3(C)C2CC[C@@H]3C(C)CCCC(C)C)[C@@]1(C)C6` (stereo partly specified), the GI50 in the test on SK-OV-3, in the test on PC-3, in the test with CCRF-CEM, in the test with NCI-H460, with U-251 and in the test on NCI-H226 was > 100 µM (inactive) each time. Also, the GI50 in the test on TK-10, in the test with SK-MEL-2, with SNB-75, in the test on MOLT-4, in the test on Malme-3M and in the test with HCT-116 was > 100 µM (inactive) in each case. In addition, the GI50 in the test with HCT-15 was above 100 µM; in the test on SK-MEL-28 it was > 100 µM (inactive); with K562 it was > 100 µM (inactive); in the test with UACC-62 it was > 100 µM (inactive); with UACC-257, > 100 µM (inactive).
For `CC(/C=N\NC(=S)N(C)C)=N/NC(=S)N(C)C`, the GI50 was 0.484 µM (active) in the test on SK-OV-3; 0.577 µM (active) in the test on PC-3; 2.88 µM (inactive) in the test with A498; 0.0412 µM (active) in the test on NCI-H460; 0.29 µM (active) in the test on U-251; 0.843 µM (active) with NCI-H226. Also, the GI50 is 0.815 µM (active) in the test on CAKI-1; 0.507 µM (active) in the test with TK-10; 0.303 µM (active) with SK-MEL-2; 0.557 µM (active) with SNB-75; 0.0397 µM (active) in the test with MOLT-4; 0.995 µM (active) with Malme-3M. Besides, the GI50 was 0.117 µM (active) in the test with HCT-116; 0.07 µM in the test on HCT-15; 4.52 µM (inactive) in the test on SK-MEL-28; 0.582 µM (active) in the test on K562; 0.764 µM (active) in the test with UACC-62; 2.61 µM (inactive) in the test on UACC-257.
Turning to `C=C(CN(C)C)C(=O)c1ccccc1Cl`, the GI50 in the test with SK-OV-3 was > 100 µM (inactive); in the test with SR, 10.8 µM (inactive); in the test on A498, 36.8 µM (inactive); with CCRF-CEM, 5.7 µM (inactive); in the test with NCI-H460, 52.8 µM (inactive); in the test with U-251, 52.1 µM (inactive). For the same compound, the GI50 is > 67.3 µM (inactive) in the test with NCI-H226; 17.1 µM (inactive) in the test with CAKI-1; 21.7 µM (inactive) in the test on TK-10; 18.1 µM (inactive) in the test with SK-MEL-2; 41.8 µM (inactive) in the test on SNB-75; 6.68 µM (inactive) in the test with MOLT-4. The GI50 is 16.2 µM (inactive) in the test with Malme-3M; 18.4 µM (inactive) in the test on HCT-116; 17.3 µM in the test with HCT-15; 7.59 µM (inactive) in the test with SK-MEL-28; 13.1 µM (inactive) with K562; 18.3 µM (inactive) with UACC-62. For the same compound, the GI50 in the test on UACC-257 is 18.8 µM (inactive).
On to `O=c1[nH]c(=O)n(C2OC(CO)C(O)C2O)cc1OCC(F)(F)F` (stereo unspecified), for which the GI50 with SK-OV-3, in the test with SR, with A498, with CCRF-CEM, in the test on NCI-H460 and in the test on U-251 was > 100 µM (inactive) each time. Besides, the GI50 in the test on NCI-H226, in the test with CAKI-1, in the test with TK-10, in the test on SK-MEL-2, with SNB-75 and in the test on MOLT-4 was > 100 µM (inactive) each time. Further, the GI50 in the test on Malme-3M was > 100 µM (inactive); in the test with HCT-116, > 100 µM (inactive); in the test on HCT-15, above 100 µM; in the test with SK-MEL-28 it was > 100 µM (inactive); with K562, > 100 µM (inactive); with UACC-62, > 100 µM (inactive). The GI50 in the test with UACC-257 is > 100 µM (inactive).
